Assays:
[1] = biological target: T1, CYP2C19 (Homo sapiens, UniProt P33261); test: CYP450 inhibition assay in human liver microsomes, CYP2C19; type: in vitro ADME; conditions: HLM 0.1 mg/mL; probe S-mephenytoin 20 µM; 20 min
T1 construct: tissue Corning 452117; host or cells: human liver microsomes
Experimental: (§1) To evaluate the reliability and reproducibility of the CYP450 inhibition assay, we measured the inhibitory effects of selected positive control inhibitors of each CYP450 enzyme in human liver microsomes (HLM, Table 1, Figure 2). The potency of inhibition was estimated by observing the alteration in concentration of metabolites of CYP450 substrates (Table 1).
(§2) Reagents preparation. […] The stock solution of PDQ (10 mM) was prepared with methanol and further diluted to the range of 3 µM to 3 mM with methanol to ensure that the solvent of different PDQ samples contained the same amount (1%) of methanol.
(§3) The stock solutions of the positive control inhibitors and the probe substrates of CYP450 enzymes were prepared in methanol.
(§4) CYP450 inhibition assay. […] The assay was conducted in polypropylene 96-well plates (2.2 mL/well, Apricot Designs Inc., Covina, CA, USA).
(§5) The total volume of the reaction is 200 μL. […] The substrates and analytes were analyzed by LC-MS/MS (API4000, Applied Biosystems, Singapore; HPLC, Shimadzu, Japan). […]
(§6) Data analysis. […] The IC50 was determined by fitting the dependence of the relative remaining activity (y = Vi/V0) to the following three-parameter equation (Equation (1)). […]

[2] = biological target: T2, CYP2C8 (Homo sapiens, UniProt P10632); test: CYP450 inhibition assay in human liver microsomes, CYP2C8; type: in vitro ADME; conditions: HLM 0.1 mg/mL; probe amodiaquine 2 µM; 10 min
T2 sequence (P10632 1-490): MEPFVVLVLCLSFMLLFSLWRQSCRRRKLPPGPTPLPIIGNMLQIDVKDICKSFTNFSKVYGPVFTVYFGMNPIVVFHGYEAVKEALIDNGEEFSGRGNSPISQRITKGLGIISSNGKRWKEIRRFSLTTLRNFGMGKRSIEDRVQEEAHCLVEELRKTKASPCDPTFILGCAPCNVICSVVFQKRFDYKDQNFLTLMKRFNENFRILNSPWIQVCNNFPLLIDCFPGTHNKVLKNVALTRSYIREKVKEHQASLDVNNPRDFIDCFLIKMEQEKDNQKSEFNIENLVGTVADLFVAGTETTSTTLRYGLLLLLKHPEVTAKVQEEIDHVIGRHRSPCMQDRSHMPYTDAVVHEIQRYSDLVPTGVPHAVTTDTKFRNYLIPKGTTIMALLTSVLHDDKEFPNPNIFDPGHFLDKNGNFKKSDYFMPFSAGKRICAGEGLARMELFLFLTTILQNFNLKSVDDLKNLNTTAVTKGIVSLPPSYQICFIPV
Experimental: as §1, §2, §3, §4, §5, §6

T1 sequence (P33261 whole entry): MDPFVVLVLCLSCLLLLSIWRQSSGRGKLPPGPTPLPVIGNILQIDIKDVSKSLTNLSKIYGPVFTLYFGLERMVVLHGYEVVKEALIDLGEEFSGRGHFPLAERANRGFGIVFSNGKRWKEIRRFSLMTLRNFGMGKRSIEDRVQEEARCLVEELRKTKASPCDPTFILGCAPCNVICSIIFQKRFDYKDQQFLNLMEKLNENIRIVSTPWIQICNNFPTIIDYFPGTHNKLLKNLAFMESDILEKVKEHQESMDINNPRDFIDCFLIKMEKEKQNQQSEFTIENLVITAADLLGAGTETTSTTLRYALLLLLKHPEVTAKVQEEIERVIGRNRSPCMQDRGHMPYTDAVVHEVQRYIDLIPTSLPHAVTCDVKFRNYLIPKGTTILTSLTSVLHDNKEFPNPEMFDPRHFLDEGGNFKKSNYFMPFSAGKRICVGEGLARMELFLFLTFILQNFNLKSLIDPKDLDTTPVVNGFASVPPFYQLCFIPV

SMILES: CC(C)(O)[C@@H]1CC[C@@](C)([C@H]2CC[C@]3(C)[C@@H]2[C@H](O)C[C@@H]2[C@@]4(C)CC[C@H](O)C(C)(C)[C@@H]4CC[C@]23C)O1 [PDQ, (20S,24S)-dammar-20,24-epoxy-3β, 12β, 25-triol]
- IC50 [1]: 0.698 µM
- IC50 [2]: 16.4 µM
